Measured values as given in patent publication US9963482B2, “Phosphatidylinositol-3-kinase inhibitor and pharmaceutical composition” (Tohoku University, priority 2011, dated 2018).
Like-named read-outs stand apart in the source and are kept apart here.

Key:
[1] = system: RKO cells; assay: Cytotoxic effect by MTT assay, RKO; assay type: cell-based, human; conditions: 24 hours
Procedure: (§1) The human culture cells used were colon cancer cell lines (HCT116, CO115, and RKO). HCT116 and RKO were obtained from American Type Culture Collection (ATCC). CO115 was obtained from John M. Mariadason (Ludwig Institute for Cancer Research, Melbourne, Australia). The cells were cultured at 37° C. in the presence of 5% CO2 by using RPMI1640 medium containing inactivated fetal bovine serum at the concentration of 10%.
(§2) After 24 hours, the number of live cells was determined by using “Cell counting kit-8” (trade name, manufactured by DOJINDO CO., LTD). […] The amount of formazan dye and the number of live cells are in proportional relationship, and by measuring the absorbance of formazan at 450 nm using a microplate reader (trade name: “SpectraMax M2e”, manufactured by Molecular Devices), the number of live cells was counted.

[2] = system: AKT pathway in PC3 (prostate cancer) cells; assay: AKT pathway inhibition by Western blotting in PC3 cells; assay type: cell-based, human
Procedure: PC3 cells were obtained from Cell Resource Center for Medical Research of Institute of Development, Aging, and Cancer, Tohoku University. The cells were cultured at 37° C. in the presence of 5% CO2 by using RPMI1640 medium containing inactivated fetal bovine serum at the concentration of 10%.
Western blotting was performed as follows. Various kinds of the cells treated with each compound were collected and lysed in a lysis buffer (500 mM Tris-HCl pH 7.5, 100 mM NaCl, 2 mM EDTA, 1 mM sodium orthovanadate, 1% NP-40, and 1% protease inhibitor cocktail, manufactured by SIGMA-ALDRICH). After centrifugation, the supernatants were collected.
The followings were used as primary antibodies.
As a secondary antibody, “Alexa Fluor680IgG” (trade name, manufactured by Invitrogen) was used. By using “Odyssey Infrared Imaging System” (trade name, manufactured by LI-COR), expression of the protein of interest was determined.

[3] = target: T1, PI3K (p110α/p85α) (Homo sapiens, UniProt P42336); assay: In vitro PI3K inhibitory activity by mobility shift assay (Carna Biosciences); assay type: biochemical
T1 construct: purchased Carna Biosciences, Inc. (Kobe); contract measurement
Procedure: The PI3K (p110α/p85α) inhibitory activity was evaluated at Carna Biosciences, Inc. (Kobe) by mobility shift assay which included isolation and quantification of a substrate and the phosphorylated substrate based on the mobility in a capillary (https://www.carnabio.com/japanese/product/search.cgi?mode=profiling). […] After allowing the reaction to occur for 5 hours at room temperature, the mobility shift assay was performed. The test was performed in duplicate.
Inhibition rate was calculated as follows.
The value of product/substrate+product when an agent was added thereto was calculated similarly, and the inhibition rate was calculated based on a difference from the control value.

[4] = system: CO115 cells; assay: Cytotoxic effect by MTT assay, CO115; assay type: cell-based, human; conditions: CO115, 24 hours
Procedure: as §1, §2

[5] = target: HDAC1 (Homo sapiens, UniProt Q13547); conditions: cited from earlier work
[6] = system: HCT116 cells; assay: FACS cell cycle analysis in HCT116 cells; assay type: cell-based, human; conditions: HCT116, 24 hours; SAHA 2.5 μM, LY294002 50 μM, FK228 or FK-A5 at low concentration
Procedure: The cells were collected, fixed with ethanol, stained with iodopropidium/PBS solution, and analyzed by using “Cytomics FC500 Flow Cytometry System” (trade name, manufactured by Beckman Coulter). The cell cycle fractions were calculated by using “Multicycle software” (trade name, manufactured by Phenomix Flow Systems).

[7] = system: HCT116 cells; assay: Cytotoxic effect by MTT assay, HCT116; assay type: cell-based, human; conditions: HCT116, 24 hours
Procedure: as §1, §2

[8] = target: T2, human p110α expressed in budding yeast (Homo sapiens, UniProt P42336); assay: Screening of PI3K inhibitor using budding yeast (recovery from cell proliferation disorder caused by p110α); assay type: cell-based; conditions: AD1-9 transformant expressing p110α, compound 5 μM, 24 hours, average of three tests
T2 construct: expressed in transfected cells; host or cells: Saccharomyces cerevisiae AD1-9 (LEU2-disrupted), galactose-induced
Procedure: AD1-9 strain can be obtained from Nader Nourizad (Stanford Genome Technology Center Stanford University, CA, USA).
The transformed AD 1-9 strain was cultured at 30° C. in a minimal complete medium SC-U-L containing no uracil and leucine or SGal-U-L in which 2% glucose was replaced with 2% galactose.
By using the aforementioned system, screening of the compound library, which was obtained from the Screening committee of anticancer drugs supported by grant-in-aid for scientific research on priority area “Cancer” from Ministry of Education, Culture, Sports, Science, and Technology, Japan, was performed. Each compound was added to SGal-U-L liquid medium to constitute a concentration of 0.5 μM or 5 μM and the transformant of AD 1-9 was cultured for 24 hours under shaking. Thereafter, A600 was measured. […] Three independent tests were repeatedly performed to calculate the average value of A600.

[9] = target: T3, HDAC6 (Homo sapiens, UniProt Q9UBN7); conditions: Table 2; cited from earlier work
T3 sequence (Q9UBN7 1-1215): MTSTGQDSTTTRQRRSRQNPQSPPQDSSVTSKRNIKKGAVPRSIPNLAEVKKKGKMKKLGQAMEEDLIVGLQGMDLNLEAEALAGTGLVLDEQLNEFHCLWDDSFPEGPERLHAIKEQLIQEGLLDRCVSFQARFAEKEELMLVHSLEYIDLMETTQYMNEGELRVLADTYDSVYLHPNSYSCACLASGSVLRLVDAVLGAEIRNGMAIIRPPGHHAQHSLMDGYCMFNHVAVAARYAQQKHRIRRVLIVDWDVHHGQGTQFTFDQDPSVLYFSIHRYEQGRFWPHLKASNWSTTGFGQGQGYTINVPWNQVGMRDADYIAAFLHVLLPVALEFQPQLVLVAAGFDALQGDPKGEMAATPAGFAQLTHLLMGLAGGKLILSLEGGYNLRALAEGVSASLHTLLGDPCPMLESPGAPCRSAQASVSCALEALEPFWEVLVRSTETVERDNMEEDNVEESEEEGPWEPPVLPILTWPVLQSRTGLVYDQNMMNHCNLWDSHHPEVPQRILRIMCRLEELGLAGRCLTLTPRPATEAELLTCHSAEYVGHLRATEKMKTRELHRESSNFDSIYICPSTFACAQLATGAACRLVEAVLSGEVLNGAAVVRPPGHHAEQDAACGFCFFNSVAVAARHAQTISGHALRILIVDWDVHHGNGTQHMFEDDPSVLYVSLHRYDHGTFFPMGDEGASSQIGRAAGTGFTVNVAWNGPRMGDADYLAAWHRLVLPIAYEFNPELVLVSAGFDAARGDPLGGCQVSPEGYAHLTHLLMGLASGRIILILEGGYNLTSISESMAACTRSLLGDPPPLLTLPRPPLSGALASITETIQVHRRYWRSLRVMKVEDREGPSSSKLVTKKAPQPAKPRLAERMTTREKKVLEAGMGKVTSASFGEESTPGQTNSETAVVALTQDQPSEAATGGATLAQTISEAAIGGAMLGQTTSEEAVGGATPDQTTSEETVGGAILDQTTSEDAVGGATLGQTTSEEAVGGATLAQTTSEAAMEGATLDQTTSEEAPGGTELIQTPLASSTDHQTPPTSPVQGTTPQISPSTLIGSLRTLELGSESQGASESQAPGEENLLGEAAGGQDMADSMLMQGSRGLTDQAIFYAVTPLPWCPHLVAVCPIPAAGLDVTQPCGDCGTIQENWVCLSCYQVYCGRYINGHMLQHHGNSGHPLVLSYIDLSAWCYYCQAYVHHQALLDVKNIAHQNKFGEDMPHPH

T1 sequence (P42336 whole entry): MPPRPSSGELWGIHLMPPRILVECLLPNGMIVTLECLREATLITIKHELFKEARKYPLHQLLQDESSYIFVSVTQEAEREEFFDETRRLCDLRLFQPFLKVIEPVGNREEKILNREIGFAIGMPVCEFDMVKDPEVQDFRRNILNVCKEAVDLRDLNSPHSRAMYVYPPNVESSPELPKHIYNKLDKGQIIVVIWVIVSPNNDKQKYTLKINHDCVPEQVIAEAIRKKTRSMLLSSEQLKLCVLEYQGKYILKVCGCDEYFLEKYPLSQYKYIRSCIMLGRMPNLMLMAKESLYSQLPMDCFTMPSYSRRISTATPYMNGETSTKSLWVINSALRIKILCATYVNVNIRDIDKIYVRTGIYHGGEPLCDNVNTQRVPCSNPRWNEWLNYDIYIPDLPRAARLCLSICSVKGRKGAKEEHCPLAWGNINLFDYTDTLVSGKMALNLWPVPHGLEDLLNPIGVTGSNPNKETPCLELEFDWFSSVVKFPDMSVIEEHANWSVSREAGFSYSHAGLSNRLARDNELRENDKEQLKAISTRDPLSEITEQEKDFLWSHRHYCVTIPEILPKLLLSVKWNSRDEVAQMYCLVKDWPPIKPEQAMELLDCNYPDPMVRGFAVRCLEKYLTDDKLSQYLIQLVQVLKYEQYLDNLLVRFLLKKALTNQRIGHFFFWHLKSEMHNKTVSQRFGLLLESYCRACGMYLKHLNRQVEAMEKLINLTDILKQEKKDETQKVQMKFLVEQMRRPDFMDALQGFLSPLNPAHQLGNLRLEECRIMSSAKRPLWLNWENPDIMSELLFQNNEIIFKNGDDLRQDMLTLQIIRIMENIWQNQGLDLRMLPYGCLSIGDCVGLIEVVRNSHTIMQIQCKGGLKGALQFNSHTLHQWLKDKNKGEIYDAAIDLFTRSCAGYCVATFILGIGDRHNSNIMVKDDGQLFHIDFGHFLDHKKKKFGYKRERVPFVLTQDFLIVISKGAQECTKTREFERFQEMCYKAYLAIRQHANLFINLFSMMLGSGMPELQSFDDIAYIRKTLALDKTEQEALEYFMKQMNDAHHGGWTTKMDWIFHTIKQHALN
T1 sequence (P27986 whole entry partner): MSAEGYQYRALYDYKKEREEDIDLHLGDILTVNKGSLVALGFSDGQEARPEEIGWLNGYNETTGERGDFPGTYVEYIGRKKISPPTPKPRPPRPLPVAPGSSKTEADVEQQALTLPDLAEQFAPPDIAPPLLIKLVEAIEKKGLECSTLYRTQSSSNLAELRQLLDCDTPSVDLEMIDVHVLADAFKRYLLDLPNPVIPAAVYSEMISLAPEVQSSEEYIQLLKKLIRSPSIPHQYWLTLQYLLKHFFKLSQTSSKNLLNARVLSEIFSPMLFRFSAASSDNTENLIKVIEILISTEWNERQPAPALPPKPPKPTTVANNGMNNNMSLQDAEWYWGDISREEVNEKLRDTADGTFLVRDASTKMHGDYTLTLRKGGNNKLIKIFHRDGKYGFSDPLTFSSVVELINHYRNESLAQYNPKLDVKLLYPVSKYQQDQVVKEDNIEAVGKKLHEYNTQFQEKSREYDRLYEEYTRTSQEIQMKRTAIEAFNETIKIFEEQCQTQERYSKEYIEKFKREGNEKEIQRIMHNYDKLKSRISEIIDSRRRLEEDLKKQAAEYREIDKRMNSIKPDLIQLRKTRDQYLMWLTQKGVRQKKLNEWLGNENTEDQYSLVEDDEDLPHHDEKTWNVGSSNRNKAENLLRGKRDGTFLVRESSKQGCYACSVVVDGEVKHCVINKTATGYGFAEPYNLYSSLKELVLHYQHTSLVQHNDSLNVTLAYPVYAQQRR
Chain of HDAC1 (Q13547 whole entry, species assumed): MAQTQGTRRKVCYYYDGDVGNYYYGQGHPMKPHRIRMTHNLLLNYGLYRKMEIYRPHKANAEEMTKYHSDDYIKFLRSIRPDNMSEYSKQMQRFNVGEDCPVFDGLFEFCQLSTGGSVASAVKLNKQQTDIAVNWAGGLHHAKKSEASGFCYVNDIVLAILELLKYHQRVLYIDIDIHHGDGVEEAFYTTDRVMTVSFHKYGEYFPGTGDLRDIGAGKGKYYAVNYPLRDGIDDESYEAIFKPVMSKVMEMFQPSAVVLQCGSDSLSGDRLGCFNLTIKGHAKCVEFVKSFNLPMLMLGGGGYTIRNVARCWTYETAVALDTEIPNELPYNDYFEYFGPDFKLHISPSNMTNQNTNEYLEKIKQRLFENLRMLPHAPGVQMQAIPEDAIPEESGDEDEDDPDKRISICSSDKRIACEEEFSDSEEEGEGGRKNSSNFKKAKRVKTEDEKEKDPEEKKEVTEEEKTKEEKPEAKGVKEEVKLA
T2 sequence (P42336 whole entry): as the sequence (P42336 whole entry) above

With `CC(C)[C@H]1NC(=O)CC2/C=C/CCSSCC(NC1=O)C(=O)N[C@H](Cc1ccccc1)C(=O)NCC(=O)O2` (stereo in doubt) [FK-A5] the “number of cells at high concentration” value ([1]; μM levels) was “very significantly reduced the number of cells”, the “expression level of phosphorylated AKT (Ser-473, Thr-308) over time” value ([2]; 10 μM, 5 to 180 minutes) was “lowered the expression level of phosphorylated AKT (Ser-473, Thr-308)” and the “phosphorylated ERK1/2” value ([2]; 180 minutes) was “slightly inhibited”. The “phosphorylated MEK1/2” value ([2]; 180 minutes) was “not inhibited”, the “expression levels of phosphorylated AKT, GSK-3β, mTOR, p70S6K and 4E-BP1” value ([2]; 180 minutes, varying concentration) was “inhibited in a concentration dependent manner” and the IC50 ([3]; 50 μM ATP, read-out: IC50 for PI3K) was 26.2 µM. The IC50 ([3]; Table 3, PI3K (p110α/p85α), read-out: PI3K IC50) was 27.3 µM, the “PI3K activity inhibitory rate” value ([3]; compound 20 μM, 50 μM ATP) was “higher inhibition rate than FK228” and the inhibition at 20 µM ([3]; compound 20 μM, 50 μM ATP, read-out: PI3K activity inhibitory rate) was 66.8%. The “number of cells at high concentration” value ([4]; μM levels) was “very significantly reduced the number of cells”, the IC50 ([5]; Table 2) was 0.0025 µM and the IC50 ([5]; Table 3) was 0.0025 µM. For the same compound, the cell cycle arrest [6] was “induced cell cycle arrest, predominantly at G2/M phase”, the “number of cells at high concentration” value ([7]; μM levels) was “very significantly reduced the number of cells” and the A600 [8] was 0.449. For the same compound, the IC50 [9] was 1.6 µM.

In the case of `CC(C)[C@H]1NC(=O)CC2/C=C/CCSSCC(NC1=O)C(=O)N[C@H](Cc1cccc3ccccc13)C(=O)NCC(=O)O2` (stereo partly drawn) [FK-A11], the cell death ([1]; 5 nM to 500 nM) is reported as “significant cell death”, the “inhibition of AKT phosphorylation compared with FK-A5 and FK228” value ([2]; 180 minutes) is reported as “occurred at a lower concentration than FK-A5 and FK228” and the cell death ([4]; from 500 nM) is reported as “strong cell death”. The cell death ([4]; up to 50 nM) was “resistant” and the cell death ([7]; 5 nM to 500 nM) was “significant cell death”.
